Assay results: patent publication US20040103451A1, “Abscisic acid 8'-and 7'-hydroxylase genes and related sequences from plants” (priority 2003, published 2004)

Columns and labels:
[1] = system: ABA 8′-hydroxylase; settings: microsomal enzyme, BMS corn suspension cells; cited from earlier work
[2] = system: ABA 8′-hydroxylase; settings: cited from earlier work; for inhibition of induction of ABA 8′-hydroxylase: corn suspension cells
[3] = system: pJK6-29 mRNA; format: cell-based, corn
Method: Total RNA isolated from non-ABA-induced and ABA-induced (9 hr at […] (+)-ABA) BMS corn suspension was probed with radiolabeled pJK6-29. […] Further Northern blot analysis was carried out. In this experiment, the time course of gene expression was compared with the appearance of ABA 8'-hydroxylase activity. ABA 8'-hydroxylase activity was determined by in vitro assay (see Krochko J. E., et al., 1998, Plant Physiol 118: 849-860) with isolated microsomes isolated from BMS corn suspension cells at defined periods after the addition of 200 μM (+)-ABA. Enzyme activity was assayed at 0 (control), 3, 6, 9, 12, 16, 20.5, 25.5 and 28.5 hours after the addition of (+)-ABA. Total RNA was extracted from duplicate tissue samples and expression of the P450 clone, pJK6-29, was determined by Northern blot analysis. The time-course of mRNA induction for pJK6-29 is consistent with the appearance of ABA 8'-hydroxylase activity (FIG. 5).

[4] = system: CYP72A7; assay: biotransformation of (+)-ABA by yeast expressing CYP72A7, LC/MS/MS of culture media; format: cell-based, Arabidopsis thaliana
Method: FIG. 6. Heterologous expression of an Arabidopsis P450 ABA 7′-hydroxylase activity in yeast. The CYP72A7 cDNA from Arabidopsis thaliana was inserted into the pYeDP60 vector, transformed into the WAT11 yeast strain (but not the WAT21 yeast strain) and analyzed for the ability to metabolize (+)-ABA. The biotransformation of (+)-ABA to 7′-hydroxyABA was assessed by High Performance Liquid Chromatography—Mass Spectrometry. (HPLC/MS/MS) 7′-hydroxyABA was excreted into the media. Measured activity was limited by access of enzyme to the substrate (ABA).
For yeast expression, the cDNAs were transferred into the expression vector pYeDP60 (Pompon D., et al., 1996, Method Enzymol 272: 51-64), and purified recombinant plasmid was subsequently transformed into WAT 11 and WAT 21 yeast strains over-expressing the Arabidopsis cytochrome P450 reductases, CTR1 and CTR2, respectively (Pompon et al., ibid). […]
For expression analysis the cultures were grown for two days on SC minus URA agar plates at 30° C. […] One to 10 mls of the sample was loaded onto an Oasis HLB column (Waters) to purify ABA and ABA-metabolites and the resulting eluant was analyzed by LC/MS/MS.

Clc1ccc(N2N=N[C@@H]3[C@@H]4C[C@@H]([C@H]5N=N[C@@H]45)[C@@H]32)cc1 [tetcyclacis]
inhibition of ABA 8′-hydroxylase [1]: inhibited

Nc1ncnc2c1ncn2[C@@H]1O[C@H](CO)C[C@H]1O [cordecypin]
inhibition of induction of ABA 8′-hydroxylase [2]: inhibited

[C-]#[O+] [CO]
inhibition of ABA 8′-hydroxylase [1]: inhibited

C[C@@H]1C[C@@H]([C@H](O)CC2CC(=O)NC(=O)C2)C(=O)[C@@H](C)C1 [cycloheximide]
inhibition of induction of ABA 8′-hydroxylase [2]: inhibited

CC1=CC(=O)CC(C)(C)[C@@]1(O)/C=C/C(C)=C\C(=O)O [(+)-ABA, S-(+)-abscisic acid]
time of peak ABA 8′-hydroxylase activity after addition of (+)-ABA ([2]; BMS corn suspension culture medium): 16 h | induction of ABA 8′-hydroxylase ([2]; maize BMS suspension cultured cells): induced | regulation of pJK6-29 P450 mRNA expression [3]: upregulated | ABA hydroxylase activity ([4]; WAT21 yeast strain): did not support any ABA hydroxylase activity | ABA 7′-hydroxylase activity (conversion to 7′-hydroxyABA) ([4]; pYeDP60.Ath30-2 in WAT11 yeast strain, (+)-ABA 20 μM to 50 μM, 24 hours): ABA 7′-hydroxylase activity was demonstrated

oxidized cytochrome c: inhibitor of ABA 8′-hydroxylase
inhibition of ABA 8′-hydroxylase [1]: inhibited
